Test results: patent publication US20220031713A1, “METHODS OF TREATING MYELOPROLIFERATIVE DISORDERS” (Impact Biomedicines, Inc., priority 2018, published 2022)
Like-named read-outs stand apart in the source and are kept apart here.

Legend:
[1] = system: PD-L1 expression in lymphoma tumor cells; settings: cited from earlier work
JAK2 signaling = experiment: Cellular assay of JAK2 signaling; format: cell-based; settings: cellular assays
[2] = system: cells expressing constitutively active JAK2; experiment: Apoptosis in cells expressing constitutively active JAK2; format: cell-based; settings: cellular assays
[3] = system: intermediate-1 with symptoms, intermediate-2 or high-risk MPN-associated myelofibrosis; settings: cited from earlier work
JAK2V617F [4] = settings: MF patients; cited from earlier work
circulating cytokines = settings: MF patients not previously treated with JAK inhibitors; cited from earlier work
[5] = system: cellular proliferation driven by mutant JAK2 or mutant MPL; experiment: Cellular proliferation driven by mutant JAK2 or mutant MPL; format: cell-based; settings: cellular assays
JAK2V617F [6] = settings: non-clinical models of MF; cited from earlier work
T cell development = settings: non-clinical data; cited from earlier work
[7] = system: graft-versus-host disease (GVHD); settings: cited from earlier work
[8] = system: intermediate-2 or high-risk MF; settings: cited from earlier work
[9] = system: hematopoietic progenitors isolated from myeloproliferative neoplasm (MPN) patients; experiment: Erythroid colony formation of hematopoietic progenitors; format: cell-based, human
MF = settings: week 24; previous ruxolitinib treatment; cited from earlier work
myelofibrosis [10] = settings: week 24, subgroup with prior ruxolitinib, cited from earlier work
[11] = system: MPN-associated myelofibrosis; settings: cited from earlier work
myelofibrosis [12] = settings: cited from earlier work
bone marrow fibrosis = settings: at 24 months; cited from earlier work
[13] = system: intermediate or high-risk MPN-associated myelofibrosis (MF); settings: cited from earlier work
[14] = system: PD-L1 expression in MPN myeloid cells; settings: cited from earlier work
[15] = system: intermediate or high-risk MPN-associated myelofibrosis (MF); settings: at 24 weeks, COMFORT-I; cited from earlier work
[16] = patients previously treated with ruxolitinib
[17] = ruxolitinib therapy, compared with BAT

Cc1cnc(Nc2ccc(OCCN3CCCC3)cc2)nc1Nc1cccc(S(=O)(=O)NC(C)(C)C)c1 [Compound I, fedratinib]
effect on PD-L1 expression [1]: modulate PD-L1 expression
effect on JAK2 signaling (JAK2 signaling): inhibits JAK2 signaling
apoptosis in cells expressing constitutively active JAK2 [2]: induces apoptosis
patients with at least 1 TEAE (all grades) ([3]; 97 patients): 97 patients
TEAE anemia ([3]; all grades): 48.5%
TEAE diarrhea ([3]; all grades): 61.9%
TEAE nausea ([3]; all grades): 55.7%
TEAE thrombocytopenia ([3]; all grades): 26.8%
TEAE vomiting ([3]; all grades): 41.2%
Grade 3 or 4 anemia ([3]; in vivo): Thirty-eight and one-tenth
Grade 3 or 4 thrombocytopenia ([3]; in vivo): 21.6%
grade 5 hematologic TEAEs ([3]; in vivo): No grade 5 hematologic TEAEs were reported
patients reporting Grade 3 or 4 TEAEs ([3]; in vivo): 62.9%
overall spleen response rate (≥35% reduction from baseline in spleen volume to the End of Cycle 6) [3, 16]: 55.4%
subjects achieving a ≥50% reduction in TSS [3, 16]: 25.6%
JAK2V617F frequency (JAK2V617F [4]): decrease JAK2V617F frequency
effect on circulating cytokines (circulating cytokines): modulate circulating cytokines
effect on cellular proliferation driven by mutant JAK2 or mutant MPL [5]: inhibits
JAK2V617F frequency (JAK2V617F [6]): decrease JAK2V617F frequency
effect on T cell development (T cell development): weak effect
effect on GVHD ([7]; non-clinical data): weak effect
TEAE diarrhea ([8]; 400 mg daily, all grades): 65.6%
TEAE fatigue ([8]; 400 mg daily, all grades): 15.6%
TEAE nausea ([8]; 400 mg daily, all grades): 63.5%
TEAE peripheral edema ([8]; 400 mg daily, all grades): 15.6%
TEAE vomiting ([8]; 400 mg daily, all grades): 41.7%
TEAE anemia (G3 and G4) ([8]; 400 mg daily): 42.7%
response rate at Cycle 6 as recommended by IWG-MRT (regardless of confirmation) ([8]; 400 mg daily): 46.9%
response rate per primary endpoint (≥35% reduction in spleen volume to End of Cycle 6, confirmed 4 weeks later by MRI) ([8]; 400 mg daily): 36.5%
TEAEs leading to permanent treatment discontinuation ([8]; 400 mg): 27.1%
subjects achieving a ≥50% reduction in TSS ([8]; 400 mg): 36.3%
subjects reporting Grade 3 or 4 TEAEs ([8]; 400 mg): 70.8%
treatment-emergent serious adverse events (SAEs) ([8]; 400 mg): 38.5%
response rate at Cycle 6 as recommended by IWG-MRT (regardless of confirmation) ([8]; 500 mg daily): 49.5%
response rate per primary endpoint (≥35% reduction in spleen volume to End of Cycle 6, confirmed 4 weeks later by MRI) ([8]; 500 mg daily): 40.2%
TEAEs leading to permanent treatment discontinuation ([8]; 500 mg): 36.1%
subjects achieving a ≥50% reduction in TSS ([8]; 500 mg): 34.1%
subjects reporting Grade 3 or 4 TEAEs ([8]; 500 mg): 78.4%
treatment-emergent serious adverse events (SAEs) ([8]; 500 mg): 44.3%
median duration of response (≥35% reduction in spleen volume) ([8]; responders from both active groups (400-mg and 500-mg)): 10.4 months
erythroid colony formation of hematopoietic progenitors [9]: inhibits erythroid colony formation

N#CCNC(=O)c1ccc(-c2ccnc(Nc3ccc(N4CCOCC4)cc3)n2)cc1 [momelotinib]
subjects with spleen volume response of 35% or more (MF): 7%

C1=C/COCc2cc(ccc2OCCN2CCCC2)Nc2nccc(n2)-c2cccc(c2)COC/1 [pacritinib]
subjects with spleen volume response of 35% or more (myelofibrosis [10]; 200 mg twice daily): 13%
subjects with spleen volume response of 35% or more (myelofibrosis [10]; 400 mg once daily): 6%

N#CC[C@H](C1CCCC1)n1cc(-c2ncnc3[nH]ccc23)cn1 [ruxolitinib, (3R)-3-cyclopentyl-3-[4-(7H-pyrrolo[2,3-d]pyrimidin-4-yl)pyrazol-1-yl]propanenitrile]
time after therapy initiation within which responses are typically observed ([11]; in vivo): 3-6 months
treatment-associated anemia [11, 17]: 40.4%
treatment-associated thrombocytopenia [11, 17]: 44.5%
median survival of relapsed and refractory patients who discontinued ruxolitinib (myelofibrosis [12]; after ruxolitinib discontinuation): 6 months
patients remaining alive (myelofibrosis [12]; median follow-up of 10 months from stopping ruxolitinib): 34%
subjects with improvement in bone marrow fibrosis (bone marrow fibrosis): 15%
proportion of subjects exhibiting a ≥35% reduction in spleen volume as measured by MRI ([13]; at 48 weeks, COMFORT-II): 28.5%
Kaplan-Meier estimated probability of survival ([13]; at 144 weeks, COMFORT-II 3-year follow-up): 81%
effect on PD-L1 expression [14]: modulate PD-L1 expression
proportion of subjects exhibiting a ≥35% reduction in spleen volume as measured by MRI [15]: 41.9%
subjects with >50% improvement in MFSAF Total Symptom Score (TSS) [15]: 45.9%
effect on graft-versus-host disease (GVHD) ([7]; preclinical and clinical data): suppressing graft-versus-host disease
